Organism: Rattus norvegicus
Assay: DrugMatrix - Regimen: Daily Repeat
Type: toxicity, organism-based, Sprague-Dawley
Set-up: regimen Daily Repeat, gender Male, age 6-8 weeks
Conditions: in vivo, po, route oral GAVAGE, […]; for ABSOLUTE BASOPHIL / ABSOLUTE EOSINOPHIL / ABSOLUTE LYMPHOCYTE / ABSOLUTE MONOCYTE / ABSOLUTE SEGMENTED NEUTROPHIL / BASOPHIL / EOSINOPHIL / ERYTHROCYTE COUNT / HEMATOCRIT / HEMOGLOBIN / LEUKOCYTE COUNT / LYMPHOCYTE / MEAN CORPUSCULAR HEMOGLOBIN / MEAN CORPUSCULAR HEMOGLOBIN CONCENTRATION / MEAN CORPUSCULAR VOLUME / MONOCYTE / NEUTROPHIL / NUCLEATED RED BLOOD CELLS / PLATELET COUNT: tissue Blood; for ALANINE AMINOTRANSFERASE / ALKALINE PHOSPHATASE / ASPARTATE AMINOTRANSFERASE / BLOOD UREA NITROGEN / CARBON DIOXIDE / CHLORIDE / CHOLESTEROL / CREATINE PHOSPHOKINASE / CREATININE / GLUCOSE / LACTATE DEHYDROGENASE / LIPASE / PHOSPHORUS / POTASSIUM / SODIUM / TOTAL BILIRUBIN / TOTAL PROTEIN / URIC ACID: tissue Plasma
[1] = 0 mg/kg, 72 h, dose level Control, time 3 day
[2] = 0 mg/kg, 120 h, dose level Control, time 5 day
[3] = 22 mg/kg, 72 h, dose level High, time 3 day

OCCN1CCN(CCCN2c3ccccc3Sc3ccc(C(F)(F)F)cc32)CC1 [FLUPHENAZINE]
ABSOLUTE BASOPHIL [1]: 0 CELLS/uL | ABSOLUTE EOSINOPHIL [1]: 0 CELLS/uL | ABSOLUTE LYMPHOCYTE [1]: 6275.67 CELLS/uL | ABSOLUTE MONOCYTE [1]: 40.67 CELLS/uL | ABSOLUTE SEGMENTED NEUTROPHIL [1]: 633.67 CELLS/uL | BASOPHIL [1]: 0% | EOSINOPHIL [1]: 0% | ERYTHROCYTE COUNT [1]: 5.2 x10E6/uL | HEMATOCRIT [1]: 32.78% | HEMOGLOBIN [1]: 12.98 G/DL | LEUKOCYTE COUNT [1]: 6.95 x10E3/uL | LYMPHOCYTE [1]: 90.17% | MEAN CORPUSCULAR HEMOGLOBIN [1]: 24.97 pg | MEAN CORPUSCULAR HEMOGLOBIN CONCENTRATION [1]: 39.62 G/DL | MEAN CORPUSCULAR VOLUME [1]: 63.03 fL | MONOCYTE [1]: 0.67% | NEUTROPHIL [1]: 9.17% | NUCLEATED RED BLOOD CELLS [1]: 0 /100WBC | PLATELET COUNT [1]: 1082.83 x10E3/uL | ALANINE AMINOTRANSFERASE [1]: 69.67 u/L | ALKALINE PHOSPHATASE [1]: 430.5 u/L | ASPARTATE AMINOTRANSFERASE [1]: 90.83 u/L | BLOOD UREA NITROGEN [1]: 13 mg/dL | CARBON DIOXIDE [1]: 33 mmol/L | CHLORIDE [1]: 99.17 MEQ/L | CHOLESTEROL [1]: 70.5 mg/dL | CREATINE PHOSPHOKINASE [1]: 253.33 u/L | CREATININE [1]: 0.13 mg/dL | GLUCOSE [1]: 157.17 mg/dL | LACTATE DEHYDROGENASE [1]: 85 u/L | LIPASE [1]: 10 u/L | PHOSPHORUS [1]: 10.2 mg/dL | POTASSIUM [1]: 5.78 MEQ/L | SODIUM [1]: 144.12 MEQ/L | TOTAL BILIRUBIN [1]: 0.2 mg/dL | TOTAL PROTEIN [1]: 5.8 G/DL | URIC ACID [1]: 0.8 mg/dL | ABSOLUTE BASOPHIL [2]: 0 CELLS/uL | ABSOLUTE EOSINOPHIL [2]: 0 CELLS/uL | ABSOLUTE LYMPHOCYTE [2]: 10431 CELLS/uL | ABSOLUTE MONOCYTE [2]: 90.5 CELLS/uL | ABSOLUTE SEGMENTED NEUTROPHIL [2]: 1111.83 CELLS/uL | BASOPHIL [2]: 0% | EOSINOPHIL [2]: 0% | ERYTHROCYTE COUNT [2]: 5.51 x10E6/uL | HEMATOCRIT [2]: 34.67% | HEMOGLOBIN [2]: 13.5 G/DL | LEUKOCYTE COUNT [2]: 11.63 x10E3/uL | LYMPHOCYTE [2]: 89.67% | MEAN CORPUSCULAR HEMOGLOBIN [2]: 24.5 pg | MEAN CORPUSCULAR HEMOGLOBIN CONCENTRATION [2]: 38.95 G/DL | MEAN CORPUSCULAR VOLUME [2]: 62.87 fL | MONOCYTE [2]: 0.67% | NEUTROPHIL [2]: 9.67% | NUCLEATED RED BLOOD CELLS [2]: 0 /100WBC | PLATELET COUNT [2]: 1052.67 x10E3/uL | ALANINE AMINOTRANSFERASE [2]: 54.67 u/L | ALKALINE PHOSPHATASE [2]: 359.83 u/L | ASPARTATE AMINOTRANSFERASE [2]: 83 u/L | BLOOD UREA NITROGEN [2]: 13.5 mg/dL | CARBON DIOXIDE [2]: 27.17 mmol/L | CHLORIDE [2]: 98.5 MEQ/L | CHOLESTEROL [2]: 66.83 mg/dL | CREATINE PHOSPHOKINASE [2]: 256.17 u/L | CREATININE [2]: 0.19 mg/dL | GLUCOSE [2]: 171.33 mg/dL | LACTATE DEHYDROGENASE [2]: 91.5 u/L | LIPASE [2]: 10.5 u/L | PHOSPHORUS [2]: 8.72 mg/dL | POTASSIUM [2]: 5.34 MEQ/L | SODIUM [2]: 142.53 MEQ/L | TOTAL BILIRUBIN [2]: 0.2 mg/dL | TOTAL PROTEIN [2]: 6.05 G/DL | URIC ACID [2]: 0.6 mg/dL | ABSOLUTE BASOPHIL [3]: 0 CELLS/uL | ABSOLUTE EOSINOPHIL [3]: 0 CELLS/uL | ABSOLUTE LYMPHOCYTE [3]: 7819 CELLS/uL | ABSOLUTE MONOCYTE [3]: 96.67 CELLS/uL | ABSOLUTE SEGMENTED NEUTROPHIL [3]: 384.33 CELLS/uL | BASOPHIL [3]: 0% | EOSINOPHIL [3]: 0% | ERYTHROCYTE COUNT [3]: 6.13 x10E6/uL | HEMATOCRIT [3]: 39.3% | HEMOGLOBIN [3]: 15.37 G/DL | LEUKOCYTE COUNT [3]: 8.3 x10E3/uL | LYMPHOCYTE [3]: 94.67% | MEAN CORPUSCULAR HEMOGLOBIN [3]: 25.03 pg | MEAN CORPUSCULAR HEMOGLOBIN CONCENTRATION [3]: 39.07 G/DL | MEAN CORPUSCULAR VOLUME [3]: 64.13 fL | MONOCYTE [3]: 1% | NEUTROPHIL [3]: 4.33% | NUCLEATED RED BLOOD CELLS [3]: 0 /100WBC | PLATELET COUNT [3]: 1324.33 x10E3/uL | ALANINE AMINOTRANSFERASE [3]: 35.33 u/L | ALKALINE PHOSPHATASE [3]: 274 u/L | ASPARTATE AMINOTRANSFERASE [3]: 77 u/L | BLOOD UREA NITROGEN [3]: 16.33 mg/dL | CARBON DIOXIDE [3]: 34 mmol/L | CHLORIDE [3]: 108.33 MEQ/L | CHOLESTEROL [3]: 92.67 mg/dL | CREATINE PHOSPHOKINASE [3]: 280 u/L | CREATININE [3]: 0.13 mg/dL | GLUCOSE [3]: 154 mg/dL | LACTATE DEHYDROGENASE [3]: 79.33 u/L | LIPASE [3]: 9.67 u/L | PHOSPHORUS [3]: 9.4 mg/dL | POTASSIUM [3]: 5.57 MEQ/L | SODIUM [3]: 156.07 MEQ/L | TOTAL BILIRUBIN [3]: 0.17 mg/dL | TOTAL PROTEIN [3]: 6.13 G/DL | URIC ACID [3]: 0.53 mg/dL
